Test results from PubChem BioAssay (NCI).
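48-hour exposure; five concentrations; linearly interpolated endpoints. At the TGI there is no net growth.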

Key:
Test in all cases: NCI tumour cell line growth inhibition, 48 h
BT-549 breast = system: BT-549 breast
DU-145 prostate = system: DU-145 prostate
HCT-116 colon = system: HCT-116 colon
HOP-62 NSCLC = system: HOP-62 NSCLC
HOP-92 NSCLC = system: HOP-92 NSCLC
HS 578T breast = system: HS 578T breast
MDA-MB-231 breast = system: MDA-MB-231 breast
MOLT-4 leukemia = system: MOLT-4 leukemia
NCI-H460 lung = system: NCI-H460 lung
OVCAR-3 ovarian = system: OVCAR-3 ovarian
RPMI-8226 leukemia = system: RPMI-8226 leukemia
SF-268 CNS = system: SF-268 CNS
SF-539 CNS = system: SF-539 CNS
SK-MEL-2 melanoma = system: SK-MEL-2 melanoma
SK-OV-3 ovarian = system: SK-OV-3 ovarian
SN12C renal = system: SN12C renal
SNB-19 CNS = system: SNB-19 CNS
SNB-75 CNS = system: SNB-75 CNS
SW-620 colon = system: SW-620 colon

SMILES	TGI (BT-549 breast) [µM]	TGI (DU-145 prostate) [µM]	TGI (HCT-116 colon) [µM]	TGI (HOP-62 NSCLC) [µM]	TGI (HOP-92 NSCLC) [µM]	TGI (HS 578T breast) [µM]	TGI (MDA-MB-231 breast) [µM]	TGI (MOLT-4 leukemia) [µM]	TGI (NCI-H460 lung) [µM]	TGI (OVCAR-3 ovarian) [µM]	TGI (RPMI-8226 leukemia) [µM]	TGI (SF-268 CNS) [µM]	TGI (SF-539 CNS) [µM]	TGI (SK-MEL-2 melanoma) [µM]	TGI (SK-OV-3 ovarian) [µM]	TGI (SN12C renal) [µM]	TGI (SNB-19 CNS) [µM]	TGI (SNB-75 CNS) [µM]	TGI (SW-620 colon) [µM]
N#CCCN(CCC#N)c1ccc(C(N=Nc2ccc(Cl)cc2)=Nc2ccccc2)cc1	16.6	26.9	24.4	28.2	32.3	35	33.8	89.4	22.5	22.1	> 100	27.1	29.1	13.9	27.1	33.5	25	31.8	39.2
C=C(Cl)/C(=C\Cl)CCC(Cl)C(C)C (stereo not given)	> 100	> 100	> 100	> 100	> 100	> 100	> 100	> 100	> 100	> 100	> 100	> 100	> 100	> 100	> 100	> 100	> 100	> 100	> 100
CNCCCNC(=S)Cn1cc(C)c(=O)[nH]c1=O	> 100	> 80.6	> 68	> 100	> 100	> 75.5	> 100	> 71.7	> 67.3	> 100	> 100	> 100	> 60.9	> 74.4	> 85.7	> 100	> 100	> 100	> 100
COC(=O)CN(CC(O)C(NC(C)=O)C(O)C=O)C(=O)OCc1ccccc1 (stereo not given)	> 100	> 100	> 100	> 100	> 100	> 100	> 100	> 100	> 100	> 100	> 100	> 100	> 100	> 100	> 100	> 100	> 100	> 100	> 100
CN(CCNC(=O)c1c[nH]c2c1ccc1ccccc12)CCNC(=O)c1c[nH]c2c1ccc1ccccc12	26.9	5.06	3.39	6.03	7.2	10.5	3.2	4.3	4.13	17.3	15.6	11.6	3.39	3.91	18.4	11.7	6.23	3.38	3.08
